Data from US20130096105A1, “ArylSulfonamide Based Matrix Metalloprotease Inhibitors” (NOVARTIS AG, priority 2008, published 2013).
Like-named read-outs stand apart in the source and are kept apart here.

What was measured:
Collagenase-3 (MMP-13) = Collagenase-3 (MMP-13) (Homo sapiens, UniProt P45452); assay: Collagenase-3 (MMP-13) inhibitory activity, fluorogenic peptide substrate cleavage; type: biochemical
Method: (§1) Gelatinase (MMP-2) inhibitory activities can be determined as follows: Stock solutions of substrate (MCA-Lys-Pro-Leu-Gly-Leu-Dpa-Ala-Arg-NH2) are prepared in DMSO at a concentration of 1.4 mM. Stock solutions of inhibitors (0.03 μM-3 mM) are also prepared in DMSO. The inhibitors are diluted into the assay solutions, and the controls use an equal volume of DMSO so that the final DMSO concentration from the inhibitor and substrate dilutions in all assays is 1.0%. Assays are performed in an assay buffer (100 mM sodium chloride, 10 μM ZnCl. Sub 2, 10 mM CaCl2, 100 mM Tris-Cl pH7.5, 0.05% Brij-35), containing 1.0% DMSO from the substrate and inhibitor additions. The substrate concentration used in the assays is 5 μM. The assays are carried out at 20-25° C. The fluorescence changes, as a result of substrate cleavage, are monitored using an excitation wavelength of 325 nm and an emission wavelength of 405 nm. The reaction mixtures are added in duplicate into appropriate wells of a 384-well assay plate. The reaction mixtures are preincubated with the inhibitors for 60 minutes The reactions are started by the addition of MMP substrate, and the fluorescence intensity changes are measured after 60 minutes The apparent enzyme activity in the presence of an inhibitor is then compared with that in the absence of any inhibitor to determine the inhibition effect of the inhibitor. These techniques are within the knowledge of one skilled in the art. The inhibition results are expressed as the inhibitor concentrations required to effect 50% inhibition (IC50) of the enzyme activity, as compared with the control (non-inhibited) reactions.
Collagenase-3 (MMP-13) inhibitory activity is determined as described above. Recombinant pro-collagenase-3 is activated with 1 mM APMA, and stored in the assay buffer after extensive dialysis in the assay buffer.

Gelatinase (MMP-2) = molecular target: T1, Gelatinase (MMP-2) (Homo sapiens, UniProt P08253); assay: Gelatinase (MMP-2) inhibitory activity, fluorogenic peptide substrate cleavage; type: biochemical
T1 sequence (P08253 110-660): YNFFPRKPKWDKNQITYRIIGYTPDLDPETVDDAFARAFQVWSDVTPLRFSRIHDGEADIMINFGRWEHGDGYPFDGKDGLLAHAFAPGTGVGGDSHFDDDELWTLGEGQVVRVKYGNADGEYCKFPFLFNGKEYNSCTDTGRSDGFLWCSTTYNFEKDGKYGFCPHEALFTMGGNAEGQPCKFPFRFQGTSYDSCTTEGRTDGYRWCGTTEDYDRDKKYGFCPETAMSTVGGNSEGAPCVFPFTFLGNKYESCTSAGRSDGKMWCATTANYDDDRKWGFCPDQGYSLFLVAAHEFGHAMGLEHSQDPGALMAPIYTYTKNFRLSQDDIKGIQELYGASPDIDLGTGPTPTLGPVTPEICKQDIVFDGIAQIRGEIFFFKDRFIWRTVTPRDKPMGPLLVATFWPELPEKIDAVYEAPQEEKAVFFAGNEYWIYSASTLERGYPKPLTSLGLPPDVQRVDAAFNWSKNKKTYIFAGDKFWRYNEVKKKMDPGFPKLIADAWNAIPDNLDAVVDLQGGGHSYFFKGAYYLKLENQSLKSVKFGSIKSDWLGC
Method: as §1

SMILES | IC50 (Collagenase-3 (MMP-13); read-out: MMP13 IC50) [nM] | IC50 (Gelatinase (MMP-2); read-out: MMP02 IC50) [nM] | IC50 (Collagenase-3 (MMP-13); read-out: IC50 (collagenase-3 MMP-13)) [nM] | IC50 (Gelatinase (MMP-2); read-out: IC50 (gelatinase MMP-2)) [nM]
NS(=O)(=O)c1cc(C(=O)c2ccc(C(=O)NCc3ccccc3)cc2)ccc1Cl [Example 35, N-Benzyl-4-(4-chloro-3-sulfamoyl-benzoyl)-benzamide] | 840 | 6890 | – | –
NS(=O)(=O)c1cc(C(=O)c2ccc(C(=O)NCCc3ccccn3)cc2)ccc1Cl [Example 36, 4-(4-Chloro-3-sulfamoyl-benzoyl)-N-(2-pyridin-2-yl-ethyl)-benzamide] | 8540 | 14900 | – | –
NS(=O)(=O)c1cc(C(=O)c2ccc(C(=O)NCCCCc3ccccc3)cc2)ccc1Cl [Example 37, 4-(4-Chloro-3-sulfamoyl-benzoyl)-N-(4-phenyl-butyl)-benzamide] | 8900 | 22800 | – | –
NS(=O)(=O)c1cc(C(=O)c2ccc(-c3ccsc3)cc2)ccc1Cl [Example 40, 2-Chloro-5-(4-thiophen-3-yl-benzoyl)-benzenesulfonamide] | 7060 | > 30000 | – | –
NS(=O)(=O)c1cc(C(=O)c2ccc(-c3ccnc(Cl)c3)cc2)ccc1Cl [Example 43, 2-Chloro-5-[4-(2-chloro-pyridin-4-yl)-benzoyl]-benzenesulfonamide] | 380 | 300 | – | –
N#Cc1ccc(C(=O)c2ccc(Cl)c(S(N)(=O)=O)c2)cc1 [Example 44, 2-Chloro-5-(4-cyano-benzoyl)-benzenesulfonamide] | 560 | 620 | – | –
Cc1ccc(C(=O)c2ccc(Cl)c(S(N)(=O)=O)c2)c(Br)c1 [Example 45, 5-(2-Bromo-4-methyl-benzoyl)-2-chloro-benzenesulfonamide] | 80 | 53 | – | –
Cc1cc(Br)ccc1C(=O)c1ccc(Cl)c(S(N)(=O)=O)c1 [Example 46, 5-(4-Bromo-2-methyl-benzoyl)-2-chloro-benzenesulfonamide] | 210 | 150 | – | –
COc1ccc(C(=O)c2ccc(Cl)c(S(N)(=O)=O)c2)c(OC)c1 [Example 48, 2-Chloro-5-(2,4-dimethoxy-benzoyl)-benzenesulfonamide] | 25300 | > 30000 | – | –
NS(=O)(=O)c1cc(C(=O)c2ccccc2)ccc1Cl [Example 49, 5-Benzoyl-2-chloro-benzenesulfonamide] | 24800 | > 30000 | – | –
NS(=O)(=O)c1cc(C(=O)c2ccc(F)cc2)ccc1Cl [Example 51, 2-Chloro-5-(4-fluoro-benzoyl)-benzenesulfonamide] | 18700 | 14600 | – | –
CC(C)(C)NC(=O)c1ccc(C(=O)c2ccc(Cl)c(S(N)(=O)=O)c2)cc1 [Example 52, N-tert-Butyl-4-(4-chloro-3-sulfamoyl-benzoyl)-benzamide] | 21300 | 29100 | – | –
NS(=O)(=O)c1cc(C(=O)c2ccc(C(=O)NCCc3ccccc3)cc2)ccc1Cl [Example 54, 4-(4-Chloro-3-sulfamoyl-benzoyl)-N-phenethyl-benzamide] | 27100 | 23400 | – | –
NS(=O)(=O)c1cc(C(=O)c2ccc(O)cc2)ccc1Cl [Example 55, 2-Chloro-5-(4-hydroxy-benzoyl)-benzenesulfonamide] | 27500 | 25500 | – | –
CC(C)COc1ccc(C(=O)c2ccc(Cl)c(S(N)(=O)=O)c2)cc1 [Example 58, 2-Chloro-5-(4-isobutoxy-benzoyl)-benzenesulfonamide] | 24200 | > 30000 | – | –
NS(=O)(=O)c1cc(C(=O)c2ccc(-c3ccccc3)cc2)ccc1Cl [Example 59, 5-(Biphenyl-4-carbonyl)-2-chloro-benzenesulfonamide] | 2630 | 1160 | – | –
Cc1ccc(-c2ccc(C(=O)c3ccc(Cl)c(S(N)(=O)=O)c3)cc2)cc1 [Example 61, 2-Chloro-5-(4′-methyl-biphenyl-4-carbonyl)-benzenesulfonamide] | 1020 | 1100 | – | –

SMILES | IC50 (Collagenase-3 (MMP-13); read-out: MMP13 IC50) [nM] | IC50 (Gelatinase (MMP-2); read-out: MMP02 IC50) [nM] | IC50 (Collagenase-3 (MMP-13); read-out: IC50 (collagenase-3 MMP-13)) [nM] | IC50 (Gelatinase (MMP-2); read-out: IC50 (gelatinase MMP-2)) [nM]
NS(=O)(=O)c1cc(C(=O)c2ccc(-c3ccc(C(F)(F)F)cc3)cc2)ccc1Cl [Example 62, 2-Chloro-5-(4′-trifluoromethyl-biphenyl-4-carbonyl)-benzenesulfonamide] | 830 | 2210 | – | –
CCc1ccc(-c2ccc(C(=O)c3ccc(Cl)c(S(N)(=O)=O)c3)cc2)cc1 [Example 63, 2-Chloro-5-(4′-ethyl-biphenyl-4-carbonyl)-benzenesulfonamide] | 380 | 2050 | – | –
NS(=O)(=O)c1cc(C(=O)c2ccc(-c3ccccc3F)cc2)ccc1Cl [Example 64, 2-Chloro-5-(2′-fluoro-biphenyl-4-carbonyl)-benzenesulfonamide] | 7550 | 4050 | – | –
NS(=O)(=O)c1cc(C(=O)c2ccc(-c3ccc(F)cc3)cc2)ccc1Cl [Example 65, 2-Chloro-5-(4′-fluoro-biphenyl-4-carbonyl)-benzenesulfonamide] | 1610 | 1180 | – | –
NS(=O)(=O)c1cc(C(=O)c2ccc(-c3ccc(Cl)cc3)cc2)ccc1Cl [Example 66, 2-Chloro-5-(4′-chloro-biphenyl-4-carbonyl)-benzenesulfonamide] | 630 | 720 | – | –
NS(=O)(=O)c1cc(C(=O)c2ccc(-c3cccc(Br)c3)cc2)ccc1Cl [Example 67, 5-(3′-Bromo-biphenyl-4-carbonyl)-2-chloro-benzenesulfonamide] | 5290 | 10200 | – | –
NS(=O)(=O)c1cc(C(=O)c2ccc(-c3cccc([N+](=O)[O-])c3)cc2)ccc1Cl [Example 68, 2-Chloro-5-(3′-nitro-biphenyl-4-carbonyl)-benzenesulfonamide] | 3150 | 3440 | – | –
CC(=O)Nc1cccc(-c2ccc(C(=O)c3ccc(Cl)c(S(N)(=O)=O)c3)cc2)c1 [Example 70, N-[4′-(4-Chloro-3-sulfamoyl-benzoyl)-biphenyl-3-yl]-acetamide] | 4010 | 11400 | – | –
O=C(c1ccc(-c2cccc(CO)c2)cc1)c1ccc(Cl)c(S(=O)(=O)O)c1 [Example 71, 2-Chloro-5-(3′-hydroxymethyl-biphenyl-4-carbonyl)-benzenesulfonic acid] | 1400 | 1090 | – | –
NS(=O)(=O)c1cc(C(=O)c2ccc(-c3ccc(C=O)cc3)cc2)ccc1Cl [Example 72, 2-Chloro-5-(4′-formyl-biphenyl-4-carbonyl)-benzenesulfonamide] | 130 | 180 | – | –
NS(=O)(=O)c1cc(C(=O)c2ccc(-c3ccc(C(=O)O)cc3)cc2)ccc1Cl [Example 73, 4′-(4-Chloro-3-sulfamoyl-benzoyl)-biphenyl-4-carboxylic acid] | 610 | 980 | – | –
COC(=O)c1ccc(-c2ccc(C(=O)c3ccc(Cl)c(S(N)(=O)=O)c3)cc2)cc1 [Example 74, 4′-(4-Chloro-3-sulfamoyl-benzoyl)-biphenyl-4-carboxylic acid methyl ester] | 240 | 930 | – | –
NS(=O)(=O)c1cc(C(=O)c2ccc(-c3ccccc3)cc2)ccc1Cl [Example 76, 5-(Biphenyl-4-carbonyl)-2-chloro-benzenesulfonamide] | 12000 | 21700 | – | –
Cc1cccc(-c2ccc(C(=O)c3ccc(Cl)c(S(N)(=O)=O)c3)cc2)c1 [Example 77, 2-Chloro-5-(3′-methyl-biphenyl-4-carbonyl)-benzenesulfonamide] | 23100 | 29100 | – | –
CN(C)c1ccc(C(=O)c2ccc(Cl)c(S(N)(=O)=O)c2)cc1 [Example 78, 2-Chloro-5-(4-dimethylamino-benzoyl)-benzenesulfonamide] | 350 | 270 | – | –
CCN(CC)c1ccc(C(=O)c2ccc(Cl)c(S(N)(=O)=O)c2)cc1 [Example 79, 2-Chloro-5-(4-diethylamino-benzoyl)-benzenesulfonamide] | 10400 | 5720 | – | –
NS(=O)(=O)c1cc(C(=O)c2ccc(N3CCCC3)cc2)ccc1Cl [Example 80, 2-Chloro-5-(4-pyrrolidin-1-yl-benzoyl)benzenesulfonamide] | 113 | – | ~113 | 55
